From patent US20100189660A1, “METHODS FOR THE DETECTION OF FATTY-ACYLATED PROTEIN” (Genentech, Inc., priority 2009, published 2010)

Experiments:
[1] = test system: MDCK cells; experiment: Hydroxylamine-sensitive assay of alkyne-labeled proteins (thioester vs amide linkage); type: cell-based, canine; conditions: blots treated with 5% hydroxylamine for 72 h
Description: These experiments validate the utility of C14 and C16 ω-alkynyl fatty-acyls as probes for protein myristoylation and palmitoylation, respectively.
(§1) Western blotting: Labeled protein lysates were resolved by SDS page using a 4-20% Tris-glycine gel (1 h 10 min at 180V). For immunoblotting of biotin-labeled proteins after electrophoresis, proteins were transferred onto a nitrocellulose membrane, which was blocked with PBS, 0.1% Tween-20 [PBST] and 5% non-fat dried milk for 2 h at RT or overnight at 4° C. The membrane was washed three times with PBST (5 minutes each), and incubated with streptavidin-horseradish peroxidase (Invitrogen Zymed #43-4323, 1:1250 in PBST) for 1 h at RT. The membrane was washed with PBST three times (10 min each) and developed using enhanced chemiluminescence according to manufacturer's recommendation (Amersham Biosciences). For the hydroxylamine-sensitive assay, following the transfer of proteins to nitrocellulose membranes, the membranes were incubated 65 to 72 h at RT with PBST and 5% NH2OH (Sigma-Aldrich). After the hydroxylamine treatment, the membranes were blocked with 5% non-fat dried milk for 2 h at RT or overnight at 4° C. and analyzed by streptavidin blot as described above.

[2] = test system: MDCK cells; experiment: Metabolic incorporation of ω-alkynyl fatty-acyls onto cellular proteins, click with biotin-azide, streptavidin-HRP western blot; type: cell-based, canine; conditions: for degree of protein incorporation / time dependence of levels of labeled protein bands: 100 μM; for degree of protein incorporation: 24 h, western blot with streptavidin-HRP; for time dependence of levels of labeled protein bands: within 6 h; for dose dependence of metabolic incorporation: increasing concentration, at 4 h
Text: Upon preparing the cellular proteome, the alkynyl group incorporated onto acylated proteins was chemoselectively ligated to azide-tagged biotin (for synthesis see Example 2) or fluorophore by a Cu(I)-catalyzed Huisgen alkyne-azide cycloaddition reaction (See, Wang, Q. et al. J. Am. Chem. Soc. 125, 3192-3193 (2003)) (FIG. 1C). The conjugated proteins were separated by gel electrophoresis and analyzed by Western blot using streptavidin-linked horseradish peroxidase (FIG. 2A). […] This was reasonable considering that the majority of protein lipid modifications in cells comprise myristoylation and palmitoylation.
Labeling and detection of lipoproteins in cell extracts: The ω-alkynl fatty-acyl compounds used for the examples were dissolved in DMSO to generate 50 mM stock solutions, and were stored at −80° C. Before cell treatment, the analogs were dissolved in DMEM serum-free media supplemented with 5% BSA (fatty acid-free—SIGMA EC232-936-2) and glutamax (for Raw and MDCK cell lines) at a final concentration of 100 μM. The fatty acid-media solutions were sonicated for 15 minutes at room temperature and then allowed to pre-complex for 15 min at RT.
Cells were seeded with complete media onto 6-well plates (8×10^5 cells/2 ml/well). They were incubated for 24 h before the treatment. Then the growth medium was removed, cells washed once with PBS and 2 mL of the ω-alkynyl fatty-acyls containing media was added to cells and incubated at 37° C. in a 5% CO2 humidified incubator. […] To obtain a final proteome concentration of 2 mg/ml (protein concentration determined by BCA kit) cell lysates were concentrated by centrifugation for 15 minutes at 14,000 rpm at 4° C. with the Centrifugal Ultrafiltration Devices (Pall centrifugal devices MWCO 3K, Nanosep device, cat # P/N ODOO3C34). Protein extracts were then subjected to the probe labeling reaction in 25 μL volume, for 1 h at RT (room temperature), at final concentrations of the following reagents (See, Speers, A. E. & Cravatt, B. F. Profiling enzyme activities in vivo using click chemistry methods. Chem Biol 11, 535-46 (2004); Hsu, T. L. et al. Alkynyl sugar analogs for the labeling and visualization of glycoconjugates in cells. Proc Natl Acad Sci USA 104, 2614-9 (2007)): 0.1 mM biotin-azide, 1 mM Tris (2-carboxyethyl)phosphine hydrochloride (TCEP, Sigma-Aldrich) dissolved in water, 0.2 mM Tris[(1-benzyl-1H-1,2,3-triazol-4-yl)methyl]amine (TBTA, Sigma-Aldrich) dissolved in DMSO/t-butanol (20%/80%) and 1 mM CuSO4 in PBS. The order of addition of the reagents to the protein extracts is important for the reaction and has to be followed as described above.
as §1

[3] = test system: MDCK cells; experiment: Specificity of incorporation: cycloheximide treatment and competition with myristic and palmitic acids; type: cell-based, canine; conditions: for probe specificity from competition experiments with myristic and palmitic acids: increasing concentration of myristic (MA) or palmitic acid (PA)
Description: MDCK cells were treated with C14 ω-alkynyl fatty acid (100 μM) in the presence or absence cycloheximide (100 μg/ml) for 5 h. Cellular proteome was prepared, reacted with biotin-azide, resolved by gel electrophoresis and detected by western blotting with streptavidin-HRP, as described using methods described herein. Asterisks denote bands labeled by treatment with probe but not in DMSO control; (B, C) Dose-dependent competition of C14 and C16 ω-alkynyl fatty acids with myristic (MA) and palmitic acids (PA), respectively. MDCK cells were treated with ω-alkynyl fatty acid probes as indicated in the presence of increasing concentration of myristic (MA) and palmitic acids (PA). Samples were processed as described herein.
The ω-alkynyl fatty-acyls were metabolically incorporated onto cellular proteins in a time- and dose-dependent manner.
Cells were seeded with complete media onto 6-well plates (8×10^5 cells/2 ml/well). They were incubated for 24 h before the treatment. Then the growth medium was removed, cells washed once with PBS and 2 mL of the ω-alkynyl fatty-acyls containing media was added to cells and incubated at 37° C. in a 5% CO2 humidified incubator. After 24 hours, the cells were washed three times with cold PBS and cell extracts were prepared by resuspending the cells in 400 μL of lysis buffer (1% Nonidet P-40/150 mM NaCl/protease and phosphatase inhibitor/100 mM sodium phosphate, pH 7.5). To obtain a final proteome concentration of 2 mg/ml (protein concentration determined by BCA kit) cell lysates were concentrated by centrifugation for 15 minutes at 14,000 rpm at 4° C. with the Centrifugal Ultrafiltration Devices (Pall centrifugal devices MWCO 3K, Nanosep device, cat # P/N ODOO3C34). […]
Western blotting: Labeled protein lysates were resolved by SDS page using a 4-20% Tris-glycine gel (1 h 10 min at 180V). […] After the hydroxylamine treatment, the membranes were blocked with 5% non-fat dried milk for 2 h at RT or overnight at 4° C. and analyzed by streptavidin blot as described above.

[4] = test system: PC3 prostate cancer cells; experiment: Fluorescence microscopy of cellular fatty-acylated proteins; type: cell-based; conditions: for subcellular distribution of probe: PC3 cells, 100 μM, 3 h, confocal microscopy
Description: Cells were treated with DMSO or ω-alkynyl fatty-acyls (100 μM) as indicated for 3 h. The cells were then fixed, permeabilized and click reacted with rhodamine-azide and imaged by epifluorescence microscopy. […] All images were acquired the same way using 63× oil objective. The fluorescence along the z-axis is shown on top of each confocal section (Scale bar, 10 μm); (J, K, L) The distribution of lipid-modified proteins in different cellular states can be monitored by fluorescence imaging. […] The fluorescence along the z-axis is shown on the left-hand side of panel (K).
Cells were then fixed, permeabilized and click reacted with biotin-azide followed with treatment with streptavidin-conjugated Alexa488 and (optionally Hoechst stain for nuclei staining) and imaged using epifluorescence microscopy technique as described herein.
Fluorescence microscopy: Cells were seeded onto 12-well plates (4×10^5 cells/well) containing coverslips and incubated for 24 h before treatment. The growth medium was removed and cells were washed once with PBS before adding 1 mL of medium containing the co-alkynyl fatty acid at the indicated concentration. After 24-48 h incubation at 37° C./5% CO2, cells were washed three times with PBS to remove excess probe (ω-alkynyl fatty acid) and fixed with 4% paraformaldehyde (PFA) for 10 min at RT. Cells were then permeabilized with PBS/0.1% triton X-100 for 1-2 min at RT, washed extensively with the following reagents: 0.1 mM biotin-azide or rhodamine-azide, 1 mM Tris (2-carboxyethyl)phosphine hydrochloride (TCEP) dissolved in water, and 1 mM CuSO4 in PBS at RT for 1 h. The labeled cells were rinsed extensively with PBS and blocked in PBS/5% BSA for 45 min at RT. Cells were stained with streptavidin-conjugated AlexaFluor 488 (Invitrogen cat # S32354, 1:500) in PBS/5% BSA for 45 min at RT and nuclei were stained with Hoechst 33342 (MP # H21492; 1:10,000 in PBS) for 10 min at RT. For labeling with rhodamine-azide, cells were directly stained with Hoechst.

[5] = PC3 cells undergoing cell division, tubulin marker

| SMILES | sensitivity of labeled proteins to hydroxylamine / type of linkage [1] | degree of protein incorporation [2] | time dependence of levels of labeled protein bands [2] | dose dependence of metabolic incorporation [2] | probe specificity from competition experiments with myristic and palmitic acids [3] | subcellular distribution of probe [4] | distribution of labeled proteins during cytokinesis [4, 5] | distribution of labeled proteins in metaphase cells [4, 5] | effect on protein labeling with C14 ([3]; C14 100 μM, cycloheximide 100 μg/ml, 5 h) |
| --- | --- | --- | --- | --- | --- | --- | --- | --- | --- |
| C#CCCCCCCCC(=O)O [C11] | predominantly attach via thioester bonds |  |  |  |  |  |  |  |  |
| C#CCCCCCCCCCCCC(=O)O [C14, 13-Tetradecyn-1-oic acid] | resistance to hydroxylamine treatment | highest degree of protein incorporation | time-dependent increase in the levels of labeled protein bands | dose-dependent metabolic incorporation | specific probes for protein N-myristoylation | distributed in a punctuate pattern outside the nucleus |  |  |  |
| C#CCCCCCCCCCCCCCC(=O)O [C16, 15-Hexadecyn-1-oic acid] | substantial sensitivity to hydroxylamine | highest degree of protein incorporation | time-dependent increase in the levels of labeled protein bands | dose-dependent metabolic incorporation | S-palmitoylation | distributed in a punctuate pattern outside the nucleus | concentrate at the cleavage furrow | at the plasma membrane and in dense structures around the spindle and throughout the body |  |
| C[C@@H]1C[C@@H]([C@H](O)CC2CC(=O)NC(=O)C2)C(=O)[C@@H](C)C1 [cycloheximide, reference compound] |  |  |  |  |  |  |  |  | inhibits protein labeling with C14 |
